One assay deals with T1, Recombinant human GSK-3β (Homo sapiens, UniProt P49841).
T1 construct: purchased Promega V1991
As to the kind of experiment: GSK-3β kinase activity, ADP-Glo Kinase Assay. It is filed as biochemical. As for the experimental part:
The ability of the compound (I) and SB216763 (compound (II)) for inhibiting GSK-3β activity is evaluated in the following paragraphs, wherein compound (II) is a known GSK-3β inhibitor in the art (Product No. 53442, Sigma). GSK-3β kinase activity was measured in the presence of the tested compounds (I) and (II) using ADP-Glo™ Kinase Assay system (Promega). Recombinant human GSK-3β (Product code V1991, Promega) was used as the enzyme source, and the GSK-3β substrate is derived from human muscle glycogen synthase 1 peptide ([…](pS)EDEEE) which corresponds to a region of glycogen synthase that is phosphorylated by GSK-3β. Reactions were performed at 30° C. for 30 minutes in 25 μL mixture that contained 25 μM ATP, 0.2 mg/mL GSK-3β substrate, 1 ng of GSK-3β, and serial dilutions of compound (I) or compound (II). Kinase activity data were measured as relative light units (RLU) directly correlated with the amount of ADP produced and FIG. 1 showing the analysis results.
The IC50 values of compound (I) and compound (II) were determined by using SigmaPLOT software.

For another assay, the system named is HSPB1. As to the kind of experiment: Western blot of HSPB1 expression in tauRD-DsRed SH-SY5Y cells. Particulars: untreated = 100%. Type of assay: cell-based, human. An excerpt:
Furthermore, chaperones are molecules essential for proper protein folding which play a key role in protein-folding disorders in central nervous system. […] Moreover, the upregulation of endoplasmic reticulum chaperones such as glucose-regulated protein, 78 kDa (GRP78) is a cellular protective response against AD (Hoshino et al., 2007. Endoplasmic reticulum chaperones inhibit the production of amyloid-(3 peptides. Biochem. J. 402, 581-589). Accordingly, the GRP78 and HSPB1 expression in tauRD-DsRed SH-SYSY cells treated by Congo red and compound (I) with or without doxycycline were analyzed.
Western blotting analysis was applied for examining the expressions of HSPB1 and GRP78, the method was as follows: total proteins were extracted using RIPA buffer, which comprised 50 mM Tris-HCl, 150 mM NaCl, 1 mM EDTA, 1 mM EGTA, 0.1% SDS, 0.5% sodium deoxycholate, 1% Triton X-100, and a protease inhibitor cocktail (Calbiochem). […] Next, immunoreactive bands were detected using horseradish peroxidase-conjugated goat anti-mouse, goat anti-rabbit, or donkey anti-goat IgG antibodies (1:5000; GeneTex) and chemiluminescent substrate (Millipore).
(A western blot detects proteins with antibodies after separation by electrophoresis.)

The subject of assay [1] is p-tau (Ser202, Thr231 and Ser396). As to the kind of experiment: Western blot of phosphorylated tau in tauRD-DsRed SH-SY5Y cells. It is filed as cell-based, human. Particulars: untreated = 100%. Here is the method: Western blotting analysis was applied for examining the expressions of HSPB1 and GRP78, the method was as follows: total proteins were extracted using RIPA buffer, which comprised 50 mM Tris-HCl, 150 mM NaCl, 1 mM EDTA, 1 mM EGTA, 0.1% SDS, 0.5% sodium deoxycholate, 1% Triton X-100, and a protease inhibitor cocktail (Calbiochem). […] of total proteins were separated on 10% SDS-PAGE gels and blotted onto nitrocellulose membrane which were stained (4° C., overnight) with antibodies against DsRed (1:500; Santa Cruz), HSPB1 (1:500; Santa Cruz), and GRP78 (1:200; Santa Cruz). Next, immunoreactive bands were detected using horseradish peroxidase-conjugated goat anti-mouse, goat anti-rabbit, or donkey anti-goat IgG antibodies (1:5000; GeneTex) and chemiluminescent substrate (Millipore).
The methods of cell culture and western blot analysis are similar to that described above, except that the antibodies against GSK-3β (total and p-Ser9) (1:1000; Cell Signaling), total tau (1:500; Dako), p-tau (Ser202) (1:500; AnaSpec), p-tau (Thr231 and Ser396) (1:1000; Invitrogen), [3-actin (1:5000; Millipore), or GAPDH (1:2000; MDBio) were used herein for evaluation of the expression levels thereof in the cells.

Assay [2] deals with transgenic flies overexpressing tau protein driven by Eq-gal4 (Eq>tau). As to the kind of experiment: In vivo tau toxicity, notal bristle number of flies. The arrangement: species or system Drosophila. The conditions noted are these: 25 μM and 50 μM of compound (I) vs DMSO. As for the experimental part:
10 Eq-ga14 flies were treated with DMSO as the control group, and transgenic flies overexpressing tau protein driven by Eq-ga14 (Eq>tau) were treated with DMSO, 25 μM of compound (I), and 50 μM of compound (I) respectively in each group of 10 flies. The number of notal bristle of the flies was then calculated.

The next assay concerns Aβ40, Aβ42. As to the kind of experiment: Immunohistochemical staining of Aβ in brain tissue. Particulars: 0.25 mg/kg i.p. daily 28 days. It is filed as in vivo, mouse. As for the experimental part: Hyperglycemia was induced by streptozotocin (STZ) to accelerated Alzheimer's disease progression of 6-month-old male transgenic 3×Tg−AD mice. Half of the 3×Tg−AD mice (n=30) received STZ (100 mg/kg) intraperitoneal injection at days 1, 2, 8, and 9 respectively as the high blood glucose group (HBG); another half of the 3×Tg-AD mice (n=30) received sodium citrate (0.1 M) at the same time points as the normal blood glucose group (NBG). Then, HBG and NBG were divided into two groups respectively to give four groups such as NBG-compound (I), HBG-compound (I), NBG-DMSO, and HBG-DMSO with n=15 in each group; wherein 0.25 mg/kg of compound (I) (in 30 μL) were intraperitoneal injected into those mice of NBG-compound (I) and HBG-compound (I) groups daily since day 14 for 28 days, and 30 μL of DMSO solvent were intraperitoneal injected into those mice of NBG-DMSO and HBG-DMSO groups daily since day 14 for 28 days. Both mouse body weight (BW) and blood glucose (BG) were monitored every week.
After the brain tissue of the mice was fixed and dehydrated, the tissue was cryosectioned (30 μm). The cryosections were then washed with phosphate buffered saline (PBS) for three times. After the optimal cutting temperature compound (OCT) was removed, 3% H2O2 was used to remove the endogenous peroxidase, and the cryosections were blocked by the blocking solution for 1 hour to reduce the non-specific antigen reactions. The primary antibodies (Aβ40, Aβ42) were added and reacted for 12 hours, the secondary antibody (1:200 dilution in blocking solution, Vecter) was added and reacted for 1 hour, and then, the avidin-biotin complex was added and reacted for 1 hour. Finally, DAB-kit was used for coloring. All the stained sections were attached to the slides, dried, dehydrated, and mounted for imaging and quantification (Image Pro Plus). The quantification results were shown in Table 1, wherein ↑, ↓:p<0.05; ↑↑, ↓↓:p<0.01.

Where [3] appears, read: HBG (high blood glucose, STZ) 3×Tg-AD mice.
The mark [4] stands for this setting: NBG (normal blood glucose) 3×Tg-AD mice.

The term IC50 denotes the point on the concentration scale where inhibition reaches its midpoint.

The structures appear in SMILES notation.

T1 sequence (P49841 whole entry): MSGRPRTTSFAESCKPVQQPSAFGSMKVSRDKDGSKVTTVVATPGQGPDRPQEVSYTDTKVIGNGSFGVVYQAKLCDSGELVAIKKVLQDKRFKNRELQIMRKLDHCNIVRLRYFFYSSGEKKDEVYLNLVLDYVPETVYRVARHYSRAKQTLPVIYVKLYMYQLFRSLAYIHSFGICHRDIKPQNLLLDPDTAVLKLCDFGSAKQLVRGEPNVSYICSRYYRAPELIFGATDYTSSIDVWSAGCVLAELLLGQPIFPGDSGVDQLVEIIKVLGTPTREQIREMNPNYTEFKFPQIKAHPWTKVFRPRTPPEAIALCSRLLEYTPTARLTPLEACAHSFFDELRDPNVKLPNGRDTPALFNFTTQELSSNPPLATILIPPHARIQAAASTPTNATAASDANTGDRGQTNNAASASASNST

Consider `CCCCC/C=C\C/C=C\C/C=C\C/C=C\CCCC(=O)Nc1ccc(O)cc1` [compound (I), (5Z, 8Z, 11Z,14Z)-N-(4-Hydroxyphenyl)icosa-5 ,8 , 11,14-tetraen amide], for which the IC50 at Recombinant human GSK-3β (25 μM ATP, 1 ng GSK-3β, 30° C., 30 minutes) was determined as 5.35 µM. Besides, the remaining activity at 0.018 µM at Recombinant human GSK-3β (concentration of compound (I) 0.018 μM, read-out: residual activity of GSK-3β) turned out to be 69.6 ± 2%. Further, the “expression of HSPB1 relative to untreated cells” value in the assay on HSPB1 was 174%. Moreover, in assay [1], the “phosphorylated tau Ser202 level relative to untreated cells” value was 32%-42%, the “phosphorylated tau Ser396 level relative to untreated cells” value was 54%-78% and the “phosphorylated tau Thr231 level relative to untreated cells” value is 37%-48%. Also, in assay [2], the “number of notal bristle” value was “effectively reduced the notal bristle loss”. Besides, in the assay with Aβ40, Aβ42 (setting [3]), the Aβ40 staining quantification is listed as 164.78 ± 9.51↓↓ and the Aβ42 staining quantification was 26.91 ± 1.28↓. Moreover, in the assay with Aβ40, Aβ42 (setting [4]), the Aβ40 staining quantification was 181.88 ± 4.17 and the Aβ42 staining quantification was found to be 29.13 ± 0.64.

These data come from patent US20170202792A1, “METHOD FOR TREATING TAU-ASSOCIATED DISEASES” (NATIONAL TAIWAN NORMAL UNIVERSITY, priority 2016, published 2017).
